Experimental data published in patent publication US20220184071A1, “GEPOTIDACIN FOR USE IN THE TREATMENT OF BACTERIAL URINARY TRACT INFECTIONS” (GlaxoSmithKline Intellectual Property Development Limited, priority 2019, published 2022).
In brackets after ≈: the same amount, converted by molar mass. Like-named read-outs stand apart in the source and are kept apart here. Marks after values point to notes of the source that are not given here.

What was measured:
E. coli = experiment: Phase IIa baseline uropathogen susceptibility testing (CLSI broth microdilution); format: cell-based, Escherichia coli; details: baseline visit
Experimental: (§1) This phase IIa single center study evaluated the safety, tolerability, pharmacokinetics, and efficacy of oral gepotidacin 1500 mg BID for 5 days in female subjects with acute cystitis. Clean catch mid-stream urine specimens were obtained for quantitative culture by standard methods. Urine samples were taken from all participants pre-treatment (baseline) and at all post-baseline visits. All urine samples were sent to a central laboratory (PPD Global Clinical Laboratories, Highland Heights, Ky., USA) for Gram stain, quantitative culture, pathogen identification and susceptibility testing. See FIG. 1 for participant disposition and study outline.
(§2) Susceptibility testing by CLSI broth microdilution and gradient diffusion (fosfomycin only) was conducted (CLSI, 2015, Methods for dilution antimicrobial susceptibility tests for bacteria that grow aerobically; approved standard-tenth edition; and CLSI, 2018. Performance Standards for Antimicrobial Susceptibility Testing; Twenty-seventh Informational Supplement M100-S28). Inclusion in the microbiological intent-to-treat population (micro-ITT), required growth of a qualifying baseline uropathogen (≥10^5 CFU/mL). See FIG. 2 for the baseline algorithm.

C. koseri = experiment: as above; format: cell-based, Citrobacter koseri; details: baseline isolate
Experimental: as §1, §2

K. pneumoniae = experiment: as above; format: cell-based, Klebsiella pneumoniae; details: baseline isolate
Experimental: as §1, §2

[1] = test system: Staphylococcus saprophyticus; experiment: MIC by CLSI broth microdilution in CAMHB and urine, Example 1 Method 3; format: cell-based; details: for Mean MIC: n = 6
Experimental: Antimicrobial activity was determined by broth microdilution using the CLSI recommended procedure.
(§3) The compounds were tested in serial two-fold dilutions and the minimum inhibitory concentration (MIC) was determined as the lowest concentration of the compound that inhibited visible growth.
In particular, gepotidacin was tested against 6 strains of Staphylococcus saprophyticus from the collection of isolates at Laboratory Specialists, Inc., Westlake, Ohio.
Levofloxacin was included as the comparator in the study to determine the effect of urine on the in vitro activity of gepotidacin against Staphylococcus saprophyticus. MICs were determined by broth microdilution according CLSI methods.
The data shown in the table below are results from an in vitro study conducted with the same S. saprophyticus isolates described above, to determine the effect of urine on the in vitro activity of gepotidacin and levofloxacin against S. saprophyticus. Study strains were tested for MICs (minimum inhibitory concentrations) according to reference CLSI broth microdilution method using cation-adjusted Mueller Hinton Broth (CAMHB) and with the addition of 25%, 50% and 100% urine (not pH adjusted, pH 6.42) and 100% urine (pH adjusted, 7.31 and 8.07).

[2] = test system: Staphylococcus epidermidis; experiment: MIC by CLSI broth microdilution in CAMHB and urine, Example 5 Method 2; format: cell-based; details: for Mean MIC: n = 4
Experimental: as §3
In particular, gepotidacin was tested against 4 strains of Staphylococcus epidermidis from the collection of isolates at Laboratory Specialists, Inc., Westlake, Ohio.
Levofloxacin was included as the comparator in the study to determine the effect of urine on the in vitro activity of gepotidacin against Staphylococcus epidermidis. MICs were determined by broth microdilution according CLSI methods.
The data shown in the table below are results from an in vitro study conducted with the same S. epidermidis isolates described above, to determine the effect of urine on the in vitro activity of gepotidacin and levofloxacin against S. epidermidis. Study strains were tested for MICs according to reference CLSI broth microdilution method using cation-adjusted Mueller Hinton Broth (CAMHB) and with the addition of 25%, 50% and 100% urine (not pH adjusted, pH 6.42) and 100% urine (pH adjusted, 7.31 and 8.07).

[3] = test system: all the gram-negative anaerobe organisms combined; experiment: MIC by CLSI agar dilution, Example 6 Method 1; format: cell-based; details: all gram-negative anaerobes combined; for MIC90: read-out: overall MIC90
Experimental: (§4) Antimicrobial activity was determined by agar dilution using the Clinical and Laboratory Standards Institute (CLSI) recommended procedure.
(§5) The compounds were tested in serial two-fold dilutions and the minimum inhibitory concentration (MIC) was determined as the lowest concentration of the compound that inhibited visible growth. Gepotidacin was tested against 333 gram-negative anaerobic and 203 gram-positive anaerobic isolates collected from clinical samples in North America and Europe from 2000 to 2017; the majority collected from 2013 to 2016.
(§6) Ceftriaxone, clindamycin, imipenem, metronidazole, moxifloxacin and piperacillin/tazobactam were included as comparators.

[4] = test system: gram-positive anaerobe organisms combined; experiment: MIC by CLSI agar dilution, Example 6 Method 1; format: cell-based; details: gram-positive anaerobes combined; for MIC90: read-out: overall MIC90
Experimental: as §4, §5, §6

qualifying uropathogens = experiment: Phase IIa baseline uropathogen susceptibility testing (CLSI broth microdilution); format: cell-based
Experimental: as §1, §2

viridans streptococci = experiment: MIC by CLSI broth microdilution, Example 5 Method 1; format: cell-based; details: 105 isolates
Experimental: Gepotidacin was tested against 101 coagulase-negative staphylococci and 105 viridans streptococci in serial two-fold dilutions and the minimum inhibitory concentration (MIC) was determined as the lowest concentration of the compound that inhibited visible growth. All of the clinical isolates were collected in 2009-2012 from patient infections from North America, Europe, Latin America and Asia-Pacific medical centers and were mainly obtained from patients with documented nosocomial and community-acquired respiratory tract infections, bloodstream infections and skin and skin structure infections. Ceftriaxone, meropenem, penicillin, levofloxacin, moxifloxacin and linezolid were included as comparators when testing the viridans streptococci isolates. Oxacillin, levofloxacin, moxifloxacin and linezolid, were included as comparators when testing the coagulase-negative staphylococci isolates. MICs were determined by broth microdilution according to CLSI methods.

[5] = Escherichia coli, Participant #2 (E. coli), read-out: MIC
[6] = Escherichia coli, Participant #3 (E. coli), read-out: MIC
[7] = Escherichia coli, Participant #4 (E. coli), read-out: MIC
[8] = Escherichia coli, Participant #5 (E. coli, MDR and fluoroquinolone-resistant), read-out: MIC
[9] = Escherichia coli, Participant #6 (E. coli, MDR), read-out: MIC

## CC1(C)S[C@@H]2[C@H](NC(=O)[C@H](N)c3ccccc3)C(=O)N2[C@H]1C(=O)O [Ampicillin]
E. coli; [5]
  MIC: > 64 µg/mL
E. coli; [6]
  MIC: 2 µg/mL (≈ 5.72 µM)
E. coli; [7]
  MIC: 1 µg/mL (≈ 2.86 µM)
E. coli; [8]
  MIC: > 64 µg/mL
E. coli; [9]
  MIC: > 64 µg/mL
C. koseri
  Susceptibility of the qualifying uropathogen: resistant
K. pneumoniae
  Susceptibility of the qualifying uropathogen: resistant

## Cc1nnc(SCC2=C(C(=O)O)N3C(=O)[C@@H](NC(=O)Cn4cnnn4)[C@H]3SC2)s1 [Cefazolin]
E. coli; [5]
  MIC: 2 µg/mL (≈ 4.4 µM)
E. coli; [6]
  MIC: 4 µg/mL (≈ 8.8 µM)
E. coli; [7]
  MIC: 2 µg/mL (≈ 4.4 µM)
E. coli; [8]
  MIC: 4 µg/mL (≈ 8.8 µM)
E. coli; [9]
  MIC: 32 µg/mL (≈ 70.4 µM)

## C[C@H]1COc2c(N3CCN(C)CC3)c(F)cc3c(=O)c(C(=O)O)cn1c23 [Levofloxacin, reference compound]
[1]; 25% Urine (pH 7.09) vs CAMHB
  Mean Dilution Difference: 0.50
  Mean difference: 0.33
  N(%) ± 1 dilution: 6 (100%)
  N(%) ± 2 dilution: 6 (100%)
[1]; 25% Urine (pH 7.09)
  Mean MIC: 1.12 µg/mL
[1]; 50% Urine (6.99) vs CAMHB
  Mean Dilution Difference: 0.17
  Mean difference: 0.10
  N(%) ± 1 dilution: 6 (100%)
  N(%) ± 2 dilution: 6 (100%)
[1]; 50% Urine (6.99)
  Mean MIC: 0.89 µg/mL
[1]; 100% Urine (pH 6.42) vs CAMHB
  Mean Dilution Difference: 0.67
  Mean difference: 0.47
  N(%) ± 1 dilution: 6 (100%)
  N(%) ± 2 dilution: 6 (100%)
[1]; 100% Urine (pH 6.42)
  Mean MIC: 1.26 µg/mL
[1]; 100% Urine (pH 7.31) vs CAMHB
  Mean Dilution Difference: 1.50
  Mean difference: 1.45
  N(%) ± 1 dilution: 2 (33.3%)
  N(%) ± 2 dilution: 6 (100%)
[1]; 100% Urine (pH 7.31)
  Mean MIC: 2.24 µg/mL
[1]; 100% Urine (pH 8.07) vs CAMHB
  Mean Dilution Difference: 1.17
  Mean difference: 0.99
  N(%) ± 1 dilution: 5 (83.3%)
  N(%) ± 2 dilution: 6 (100%)
[1]; 100% Urine (pH 8.07)
  Mean MIC: 1.78 µg/mL
[1]; CAMHB (ref. method, pH 7.2)
  Mean MIC: 0.79 µg/mL
[2]; 25% Urine (pH 7.09) vs CAMHB
  Mean Dilution Difference: 0.25
  Mean difference: 0.03
  N(%) ± 1 dilution: 4 (100%)
  N(%) ± 2 dilution: 4 (100%)
[2]; 25% Urine (pH 7.09)
  Mean MIC: 0.17 µg/mL
[2]; 50% Urine (6.99) vs CAMHB
  Mean Dilution Difference: 0.25
  Mean difference: 0.03
  N(%) ± 1 dilution: 4 (100%)
  N(%) ± 2 dilution: 4 (100%)
[2]; 50% Urine (6.99)
  Mean MIC: 0.17 µg/mL
[2]; 100% Urine (pH 6.42) vs CAMHB
  Mean Dilution Difference: 0.51
  Mean difference: 0.06
  N(%) ± 1 dilution: 4 (100%)
  N(%) ± 2 dilution: 4 (100%)
[2]; 100% Urine (pH 6.42)
  Mean MIC: 0.21 µg/mL
[2]; 100% Urine (pH 7.31) vs CAMHB
  Mean Dilution Difference: 0.78
  Mean difference: 0.10
  N(%) ± 1 dilution: 3 (75%)
  N(%) ± 2 dilution: 4 (100%)
[2]; 100% Urine (pH 7.31)
  Mean MIC: 0.25 µg/mL
[2]; 100% Urine (pH 8.07) vs CAMHB
  Mean Dilution Difference: 1.78
  Mean difference: 0.35
  N(%) ± 1 dilution: 2 (50%)
  N(%) ± 2 dilution: 3 (75%)
[2]; 100% Urine (pH 8.07) vs CAMHB, listed as levofloxacin
  Mean Dilution Difference: approximately 1.8
[2]; 100% Urine (pH 8.07)
  Mean MIC: 0.5 µg/mL
[2]; CAMHB (ref. method, pH 7.2)
  Mean MIC: 0.15 µg/mL

## CO/N=C(\C(=O)N[C@@H]1C(=O)N2C(C(=O)O)=C(CSc3nc(=O)c(=O)[nH]n3C)CS[C@H]12)c1csc(N)n1 [ceftriaxone]
[3]
  MIC90: 512 µg/mL
[4]
  MIC90: 256 µg/mL

## CCC[C@@H]1C[C@@H](C(=O)N[C@@H]([C@H]2O[C@H](SC)[C@H](O)[C@@H](O)[C@H]2O)[C@H](C)Cl)N(C)C1 [clindamycin]
[3]
  MIC90: > 8 µg/mL
[4]
  MIC90: > 8 µg/mL

## C[C@@H]1O[C@@H]1P(=O)(O)O [fosfomycin]
Qualifying uropathogens
  Resistance among the baseline uropathogens recovered: None of the baseline uropathogens recovered were resistant

## C[C@@H](O)[C@H]1C(=O)N2C(C(=O)O)=C(SCCN=CN)C[C@H]12 [imipenem]
[3]
  MIC90: 0.5 µg/mL
[4]
  MIC90: 8 µg/mL

## C[C@@H](O)[C@H]1C(=O)N2C(C(=O)O)=C(S[C@@H]3CN[C@H](C(=O)N(C)C)C3)[C@H](C)[C@H]12 [meropenem]
Qualifying uropathogens
  Resistance among the baseline uropathogens recovered: None of the baseline uropathogens recovered were resistant
Viridans streptococci
  MIC90: 0.25 µg/mL (≈ 0.652 µM)

## Cc1ncc([N+](=O)[O-])n1CCO [metronidazole]
[3]
  MIC90: 2 µg/mL
[4]
  MIC90: 0.5 µg/mL

## COc1c(N2C[C@@H]3CCCN[C@@H]3C2)c(F)cc2c(=O)c(C(=O)O)cn(C3CC3)c12 [moxifloxacin]
Viridans streptococci
  MIC90: 0.25 µg/mL (≈ 0.623 µM)
[3]
  MIC90: 8 µg/mL
[4]
  MIC90: > 8 µg/mL

## Trimethoprim-sulfamethoxazole
E. coli; Participant #2 (E. coli)
  MIC: 0.03 µg/mL
E. coli; Participant #3 (E. coli)
  MIC: 0.03 µg/mL
E. coli; Participant #4 (E. coli)
  MIC: 0.03 µg/mL
E. coli; Participant #5 (E. coli, MDR and fluoroquinolone-resistant)
  MIC: >8^b μg/mL
E. coli; Participant #6 (E. coli, MDR)
  MIC: >8^b μg/mL

## piperacillin/tazobactam
Qualifying uropathogens
  Resistance among the baseline uropathogens recovered: None of the baseline uropathogens recovered were resistant
[3]
  overall MIC90: 16 µg/mL
[4]
  overall MIC90: 16 µg/mL
